In test [1] the test system is MT2. Description: Tested for the antiviral activity against MT-2 cells infected with AZT sensitive strain of HIV-1 (A012). It counts as functional, cell-based. The following applies: Homo sapiens.
The nature of test [2]: Tested for the therapeutic index against Sc-1 cells of rauscher murine leukemia virus (R-Mul V) by plaque assay in mouse. The class given is functional.
A short description of test [3]: Tested for the inhibitory activity of production of viral antigen (p30) against Sc-1 cells of rauscher murine leukemia virus (R-Mul V). It counts as functional, cell-based. The following applies: Mus musculus.
A short description of test [4]: Tested for the therapeutic index of production of viral antigen (p30) against Sc-1 cells of rauscher murine leukemia virus (R-Mul V). The class given is functional, Mus musculus.
Test [5] relates to CEM-SS. Description: Tested for the inhibitory activity against CEM-SS cells. It counts as functional, cell-based. The following applies: Homo sapiens.
The test system of test [6] is MT2. The test can be described thus: Tested for the therapeutic index against MT-2 cells of AZT sensitive strain of HIV-1 (A012). It counts as functional, Homo sapiens.
The subject of test [7] is MT2. The test can be described thus: Tested for the antiviral activity against MT-2 cells infected with AZT resistant strain of HIV-1 (A012). The following applies: Homo sapiens. It counts as functional, cell-based.
The nature of test [8]: Tested for the inhibitory activity against Sc-1 cells by plaque assay in mouse. The class given is functional, cell-based.
Test [9] relates to MT2. The test can be described thus: Tested for the therapeutic index against MT-2 cells of AZT resistant strain of HIV-1 (A012). The class given is functional, Homo sapiens.
Test [10] has as its system CEM-SS. Description: Tested for the therapeutic index against CEM-SS cells of HIV-1 (IIIb). The class given is functional, Homo sapiens.
The subject of test [11] is CEM-SS. Description: Tested for the therapeutic index against CEM-SS cells of HIV-1 (RF). It counts as functional, Homo sapiens.
A short description of test [12]: Tested for the antiviral activity against Sc-1 cells infected with rauscher murine leukemia virus (R-Mul V) by plaque assay in mouse. It counts as functional, cell-based.
The test system of test [13] is CEM-SS. Description: Tested for the antiviral activity against CEM-SS cells infected with HIV-2 (NIH-D2). It counts as functional, cell-based. The following applies: Homo sapiens.
Test [14] deals with CEM-SS. Description: Tested for the antiviral activity against CEM-SS cells infected with HIV-1 (RF); value ranges from 2-15. The class given is functional, cell-based. The following applies: Homo sapiens.
Test [15] is described as follows: Tested for the antiviral activity of production of viral antigen (p30) against Sc-1 cells of rauscher murine leukemia virus (R-Mul V). The class given is functional, cell-based. The following applies: Mus musculus.
Test [16] relates to MT4. The test can be described thus: Tested for the antiviral activity against MT-4 cells infected with HIV (IIIb) strain resistant to non-nucleoside reverse transcriptase inhibitors. It counts as functional, cell-based. The following applies: Homo sapiens.
Test [17] concerns CEM-SS. Description: Tested for the therapeutic index against CEM-SS cells of HIV-2 (NIH-D2). It counts as functional, Homo sapiens.
Test [18] relates to MT4. The test can be described thus: Tested for the therapeutic index against MT-4 cells of HIV-1 (IIIb). It counts as functional, Homo sapiens.
Test [19] concerns MT4. Description: Tested for the inhibitory activity against MT-4 cells. It counts as functional, cell-based. The following applies: Homo sapiens.
The subject of test [20] is MT2. Description: Tested for the inhibitory activity against MT-2 cells. The following applies: Homo sapiens. The class given is functional, cell-based.

In general, EC50 refers to the midpoint of the concentration-response curve. By IC50 is commonly meant the concentration needed to halve the response being measured.

In the case of `CC(C)CCCC(C)[C@H]1CC[C@H]2[C@@H]3CCC4C[C@@H](CCC=C(c5cc(Cl)c(O)c(C(=O)O)c5)c5cc(Cl)c(O)c(C(=O)O)c5)CC[C@]4(C)[C@H]3CC[C@]12C` (stereo not given in full), the EC50 was 8 µM in the test on MT2 [1]; 10 µM in the test on MT2 [7]; 4 µM in test [12]; 5 µM in the test with CEM-SS [13]; 2 µM in the test on CEM-SS [14]; 7 µM in test [15]. This compound had an EC50 in the test on MT4 [16] of 20 µM. The TI50 in [2] is reported as greater than 8; in test [4], greater than 4; in the test with MT2 [6] it was 25; in the test with MT2 [9] it was 20; with CEM-SS [10], greater than 100; with CEM-SS [11], greater than 20. Moreover, the TI50 with CEM-SS [17] is on record as greater than 60; with MT4 [18], greater than 15. Besides, the IC50 in test [3] was greater than 32 µM; in the test on CEM-SS [5], greater than 300 µM; in [8], greater than 32 µM; in the test with MT4 [19], greater than 300 µM; in the test with MT2 [20], 200 µM.

The values above are taken from ChEMBL document CHEMBL1150978, “Design and synthesis of cosalane, a novel anti-HIV agent” (Bioorg Med Chem Lett, 1993).
